From patent publication US8148373B2, “Compounds” (AstraZeneca AB, priority 2008, dated 2012)

Columns and labels:
[1] = biological target: T1, human muscarinic acetylcholine M3 receptor (M3-ACh) (Homo sapiens, UniProt P20309); experiment: Muscarinic 3 Receptor Binding Assay ([3H]NMS competition, SPA); details: [3H]NMS 0.1 nM, CHO-K1 cell membranes, 16 hours at room temperature; read-out: M3 pIC50 (converted)
T1 construct: expressed in transfected cells; host or cells: CHO-K1 (Chinese Hamster Ovary) cell membranes
In short: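 Competition SPA binding of 0.1 nM [3H]NMS (quarter Kd) to membranes from CHO-K1 cells expressing human M3, in 20 mM HEPES pH 7.4, 5 mM MgCl2, 1% DMSO. Incubated 16 h at room temperature; non-specific binding with 1 µM atropine. pIC50 from 50% reduction of specific binding.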

[2] = biological target: T2, Adrenergic β2 (H292 cells) (Homo sapiens, UniProt P07550); experiment: Assay for Adrenergic β2 Mediated cAMP Production (concentration response, AlphaScreen cAMP detection); type: cell-based; details: for EC50: cAMP production, 60 minutes at room temperature, 300 μM rolipram, read-out: β2 pEC50 (converted); for β2 Intrinsic activity: fraction relative to the maximum activity determined for formoterol
T2 construct: endogenous in cells; host or cells: H292 cells
In short: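 Intrinsic activity is relative to the per-experiment formoterol maximum, with pEC50 from a four-parameter logistic fit of cAMP levels quantified by AlphaScreen against standards. Cells (H292) got 300 μM rolipram for 10 min, then compound for 60 min at room temperature, 1% DMSO final.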

[3] = biological target: T2, Adrenergic β2 (H292 cells); experiment: Adrenergic β2 Mediated cAMP Production, single concentration 1 μM; type: cell-based; details: NCI-H292, 1 μM compound, percentage of the maximum response generated by 1E-07M formoterol, read-out: β2 (% effect at 1 μM)
In short: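 cAMP was quantified by AlphaScreen in lysates of H292 cells and reported as a percentage of the 1E-07M formoterol maximum. Before lysis the cells, seeded the previous day, received rolipram (300 μM final) and then test compound at a final 1 μM in 1% DMSO for 60 min at room temperature.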

[4] = biological target: T1, human muscarinic acetylcholine M3 receptor (M3-ACh); experiment: Muscarinic 3 Receptor Binding Assay, % inhibition specific binding at 1 μM; details: 1 μM compound, % inhibition specific [3H]-NMS binding
In short: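 Value is % inhibition of specific [3H]N-methyl scopolamine binding (0.1 nM, quarter Kd) by 1 μM compound, using SPA beads precoated with human M3-expressing CHO-K1 membranes. Buffer HEPES pH 7.4 with MgCl2 and 1% DMSO; 16 h at room temperature; 1 μM atropine sets non-specific binding.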

T1 sequence (P20309 whole entry): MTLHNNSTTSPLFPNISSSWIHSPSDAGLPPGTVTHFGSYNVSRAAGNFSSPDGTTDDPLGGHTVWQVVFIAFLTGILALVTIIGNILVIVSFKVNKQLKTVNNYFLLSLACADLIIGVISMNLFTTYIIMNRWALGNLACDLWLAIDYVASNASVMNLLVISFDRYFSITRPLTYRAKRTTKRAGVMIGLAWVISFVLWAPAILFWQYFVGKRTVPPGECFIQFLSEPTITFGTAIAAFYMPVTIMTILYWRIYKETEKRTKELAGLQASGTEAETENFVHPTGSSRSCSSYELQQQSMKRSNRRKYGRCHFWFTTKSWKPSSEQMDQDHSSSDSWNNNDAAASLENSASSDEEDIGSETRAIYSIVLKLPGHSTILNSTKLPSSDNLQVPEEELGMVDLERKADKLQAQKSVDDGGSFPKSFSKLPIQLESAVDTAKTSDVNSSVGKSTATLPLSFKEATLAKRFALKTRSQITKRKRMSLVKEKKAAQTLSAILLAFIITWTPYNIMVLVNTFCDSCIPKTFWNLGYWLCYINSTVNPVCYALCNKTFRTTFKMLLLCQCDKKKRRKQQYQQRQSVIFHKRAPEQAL
T2 sequence (P07550 whole entry): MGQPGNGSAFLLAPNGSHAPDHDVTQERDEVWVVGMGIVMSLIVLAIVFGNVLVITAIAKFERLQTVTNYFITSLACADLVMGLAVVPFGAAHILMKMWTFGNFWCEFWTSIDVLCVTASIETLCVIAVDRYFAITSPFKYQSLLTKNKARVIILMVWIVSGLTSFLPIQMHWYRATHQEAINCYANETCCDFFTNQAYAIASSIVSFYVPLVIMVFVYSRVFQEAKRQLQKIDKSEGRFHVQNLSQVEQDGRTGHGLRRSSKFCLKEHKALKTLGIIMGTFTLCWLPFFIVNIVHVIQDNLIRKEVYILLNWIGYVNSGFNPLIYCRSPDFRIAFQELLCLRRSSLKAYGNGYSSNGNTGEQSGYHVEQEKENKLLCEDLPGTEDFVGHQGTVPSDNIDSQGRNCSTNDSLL

SMILES	IC50 [1]	EC50 [2]	β2 Intrinsic activity [2]	activation at 1 µM [3]	inhibition at 1 µM [4]
Cc1nc(C(=O)N2CCOC3(CCN(CCCCCCCCCNC[C@H](O)c4ccc(O)c5[nH]c(=O)sc45)CC3)C2)c(C)s1 [Example 201, (R)-7-(2-(9-(4-(2,5-dimethylthiazole-4-carbonyl)-1-oxa-4,9-diazaspiro[5.5]undecan-9-yl)nonylamino)-1-hydroxyethyl)-4-hydroxybenzo[d]thiazol-2(3H)-one]	6.31 nM	31.6 nM	0.9	105%	98%
Cc1cc(C(=O)N2CCOC3(CCN(CCCCCCCCCNC[C@H](O)c4ccc(O)c5[nH]c(=O)sc45)CC3)C2)c(C)s1 [Example 202, (R)-7-(2-(9-(4-(2,5-dimethylthiophene-3-carbonyl)-1-oxa-4,9-diazaspiro[5.5]undecan-9-yl)nonylamino)-1-hydroxyethyl)-4-hydroxybenzo[d]thiazol-2(3H)-one]	7.94 nM	20 nM	0.9	98%	99%
O=C(c1ccc2occc2c1)N1CCOC2(CCN(CCCCCCCCCNC[C@H](O)c3ccc(O)c4[nH]c(=O)sc34)CC2)C1 [Example 209, (R)-7-(2-(9-(4-(benzofuran-5-carbonyl)-1-oxa-4,9-diazaspiro[5.5]undecan-9-yl)nonylamino)-1-hydroxyethyl)-4-hydroxybenzo[d]thiazol-2(3H)-one]	2 nM	25.1 nM	0.9	84%	99%
Cc1nc(CC(=O)N2CCOC3(CCN(CCCCCCCCCNC[C@H](O)c4ccc(O)c5[nH]c(=O)sc45)CC3)C2)cs1 [Example 210, (R)-4-hydroxy-7-(1-hydroxy-2-(9-(4-(2-(2-methylthiazol-4-yl)acetyl)-1-oxa-4,9-diazaspiro[5.5]undecan-9-yl)nonylamino)ethyl)benzo[d]thiazol-2(3H)-one]	7.94 nM	15.8 nM	0.8	92%	95%
Cc1csc(C(=O)N2CCOC3(CCN(CCCCCCCCCNC[C@H](O)c4ccc(O)c5[nH]c(=O)sc45)CC3)C2)c1 [Example 213, (R)-4-hydroxy-7-(1-hydroxy-2-(9-(4-(4-methylthiophene-2-carbonyl)-1-oxa-4,9-diazaspiro[5.5]undecan-9-yl)nonylamino)ethyl)benzo[d]thiazol-2(3H)-one]	0.794 nM	12.6 nM	0.8	87%	99%
O=C(c1csc(C(F)(F)F)n1)N1CCOC2(CCN(CCCCCCCCCNC[C@H](O)c3ccc(O)c4[nH]c(=O)sc34)CC2)C1 [Example 217, (R)-4-hydroxy-7-(1-hydroxy-2-(9-(4-(2-(trifluoromethyl)thiazole-4-carbonyl)-1-oxa-4,9-diazaspiro[5.5]undecan-9-yl)nonylamino)ethyl)benzo[d]thiazol-2(3H)-one]	0.631 nM	39.8 nM	0.9	103%	100%
O=C(c1csc(C2CC2)n1)N1CCOC2(CCN(CCCCCCCCCNC[C@H](O)c3ccc(O)c4[nH]c(=O)sc34)CC2)C1 [Example 218, (R)-7-(2-(9-(4-(2-cyclopropylthiazole-4-carbonyl)-1-oxa-4,9-diazaspiro[5.5]undecan-9-yl)nonylamino)-1-hydroxyethyl)-4-hydroxybenzo[d]thiazol-2(3H)-one]	0.398 nM	25.1 nM	0.9	95%	100%
CCCc1nc(C(=O)N2CCOC3(CCN(CCCCCCCCCNC[C@H](O)c4ccc(O)c5[nH]c(=O)sc45)CC3)C2)cs1 [Example 219, (R)-4-hydroxy-7-(1-hydroxy-2-(9-(4-(2-propylthiazole-4-carbonyl)-1-oxa-4,9-diazaspiro[5.5]undecan-9-yl)nonylamino)ethyl)benzo[d]thiazol-2(3H)-one]	1 nM	50.1 nM	0.8	92%	99%
O=C(c1csc(C2CCC2)n1)N1CCOC2(CCN(CCCCCCCCCNC[C@H](O)c3ccc(O)c4[nH]c(=O)sc34)CC2)C1 [Example 220, (R)-7-(2-(9-(4-(2-cyclobutylthiazole-4-carbonyl)-1-oxa-4,9-diazaspiro[5.5]undecan-9-yl)nonylamino)-1-hydroxyethyl)-4-hydroxybenzo[d]thiazol-2(3H)-one]	0.631 nM	25.1 nM	0.8	109%	100%
O=C(c1csc(C2CCCC2)n1)N1CCOC2(CCN(CCCCCCCCCNC[C@H](O)c3ccc(O)c4[nH]c(=O)sc34)CC2)C1 [Example 221, (R)-7-(2-(9-(4-(2-cyclopentylthiazole-4-carbonyl)-1-oxa-4,9-diazaspiro[5.5]undecan-9-yl)nonylamino)-1-hydroxyethyl)-4-hydroxybenzo[d]thiazol-2(3H)-one]	1.26 nM	31.6 nM	0.9	93%	99%
O=C(c1csc(C2CC2)n1)N1CCOC2(CCN(CCOc3ccc(CNC[C@H](O)c4ccc(O)c5[nH]c(=O)sc45)cc3)CC2)C1 [Example 259, (R)-7-(2-(4-(2-(4-(2-cyclopropylthiazole-4-carbonyl)-1-oxa-4,9-diazaspiro[5.5]undecan-9-yl)ethoxy)benzylamino)-1-hydroxyethyl)-4-hydroxy-benzo[d]thiazol-2(3H)-one]	5.01 nM	200 nM	0.9	68%	99%
